Source: patent EP4647428A1, “COMPOUND CONTAINING 2-METHYL-2-(3-(PIPERIDIN-3-YL)PHENOXY)-2-METHYLPROPANAMIDE SKELETON” (Jiangsu Mingsheng Jutai Biotechnology Co. Ltd, priority 2023, dated 2024)

How the values were obtained:
SW480 = experiment: CCK8 cell inhibition test on SW480 cells; assay type: cell-based; details: Homo sapiens; CCK-8, SW480 cells, 24 hours incubation at 37°C, compound 20 µM to 0.15625 µM in DMEM (2% FBS)
Description: Cells were digested, counted, and plated in a 96-well plate (flat-bottomed, transparent) with 10,000 cells/100 µl DMEM (10% FBS) per well . • 2. Observe the cell status on the next day and start adding drugs after the cells have fully adhered to the wall; • 3. Dilute the compound in DMEM (2% FBS) in a serial dilution format to concentrations of 20 µM, 10 µM, 5 µM, 2.5 µM, 1.25 µM, 0.625 µM, 0.3125 µM, 0.15625 µM, and 0 µM (with equal volume of DMSO). • 4. Add 100 µl of the above compounds at different concentrations to each well. Repeat for each concentration gradient in duplicate. Leave three blank wells (add only DMEM 2% FBS culture medium without cells) . • 5. Incubate at 37°C for 24 hours . • 6. Add 10 µl of CCK-8 Enhanced Solution to each well. Since the amount of CCK-8 added to each well is relatively small, there may be errors due to the reagent sticking to the well wall. It is recommended to gently tap the culture plate after adding the reagent to help mix it. • 7. Incubate in the incubator for 0.5-4 hours: The amount of formazan formed varies depending on the cell type. In most cases, incubation for 1 hour is sufficient. If color development is insufficient, continue incubation to confirm optimal conditions. • 8. Measure the absorbance at 450nm and 600nm (excluding interference from the reagent background color and the absorbance of the well plate itself); • 9. The final absorbance value is OD450nm-OD600nm, and the inhibition rate is calculated; Inhibition rate = [(Ac−As)/(Ac−Ab)] × 100% [formula] • As: absorbance of the experimental well (culture medium containing cells, CCK-8, and drug to be tested); • Ac: absorbance of control wells (culture medium containing cells, CCK-8, and no test drug); • Ab: absorbance of blank wells (culture medium without cells, test drugs, or CCK-8).

β-catenin = biological target: T1, β-catenin (Homo sapiens, UniProt P35222); experiment: SRP test (Biacore T200, affinity fitting KD to coupled ligand β-catenin); assay type: binding; details: Biacore T200, CM5 chip, 25°C, HEPES pH 7.4
T1 sequence (P35222 1-781): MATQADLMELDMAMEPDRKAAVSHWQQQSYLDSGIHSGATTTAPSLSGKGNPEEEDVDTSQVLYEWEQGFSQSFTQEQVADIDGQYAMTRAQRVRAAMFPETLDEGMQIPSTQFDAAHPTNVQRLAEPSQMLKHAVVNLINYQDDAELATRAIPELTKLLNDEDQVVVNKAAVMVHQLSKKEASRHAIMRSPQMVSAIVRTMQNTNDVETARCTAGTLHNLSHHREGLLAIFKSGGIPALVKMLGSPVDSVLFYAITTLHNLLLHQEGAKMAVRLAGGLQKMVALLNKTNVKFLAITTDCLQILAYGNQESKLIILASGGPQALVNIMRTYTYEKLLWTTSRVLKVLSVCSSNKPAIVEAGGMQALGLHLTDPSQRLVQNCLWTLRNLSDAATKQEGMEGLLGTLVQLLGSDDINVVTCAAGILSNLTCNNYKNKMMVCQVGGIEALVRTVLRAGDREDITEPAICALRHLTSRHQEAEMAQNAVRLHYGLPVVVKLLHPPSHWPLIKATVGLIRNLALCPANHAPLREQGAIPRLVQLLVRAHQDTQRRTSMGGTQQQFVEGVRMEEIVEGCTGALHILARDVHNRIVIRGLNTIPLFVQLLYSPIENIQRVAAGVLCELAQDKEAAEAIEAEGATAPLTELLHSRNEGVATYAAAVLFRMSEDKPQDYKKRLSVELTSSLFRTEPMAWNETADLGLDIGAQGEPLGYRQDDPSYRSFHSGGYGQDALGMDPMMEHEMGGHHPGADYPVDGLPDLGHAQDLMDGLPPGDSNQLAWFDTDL
Description: • 1. The analyte is in powder form. • 2. The temperature is 25°C. • 3. The analytical equipment used was Biacore T200 instrument.
• 1. Ligand β-catenin was diluted with HEPES (pH 7.4) to 0.5 mg/mL • 2. The analyte was dissolved in DMSO and diluted with 0.1% DMSO HEPES (pH 7.4)
3. Experimental Procedure
• 1. Start the Biacore T200 instrument according to standard operating procedures. • 2. Prepare 500 ml of HEPES buffer (pH 7.4) and deionized water (filtered through a 0.22 µm membrane) for rinsing the injection needle. • 3. Start installing the chip and install the CM5 chip according to the standard process. • 4. Prepare to start the formal experiment. The buffer solution will flush the flow system inside the entire system at a high flow rate. • 5. Choose the appropriate procedure based on the sample size. • 6. Start the capture chip. Prepare a sufficient volume of ligand β-catenin, EDC/NHS, and blocking buffer. Initiate the coupling procedure with a 7-minute coupling time and a flow rate of 10 µl/min. The final ligand coupling volume is approximately 16,000 RU. • 7. After the coupling is completed, start the sample detection and set the analyte binding time to 120 s. • The flow rate was 30 µL/min; the dissociation time was 200 s, the flow rate was 30 µL/min; the regeneration time was 30 s, • The flow rate was 30 µL/min. • 8. […]

IC50 (SW480) | Kd (β-catenin) | Structure (SMILES)
< 2.97 µM | 0.76 µM | CC(C)c1ccc(-c2cccc(S(=O)(=O)N3CCCC(c4cccc(OC(C)(C)C(=O)NCC(=O)N5CC[C@@H](CN)C5)c4)C3)c2)cc1 (stereo partly shown) [Compound 115-012]
3.56 µM | 0.284 µM | CC(C)c1ccc(-c2cccc(S(=O)(=O)N3CCCC(c4cccc(OC(C)(C)C(=O)NCC(=O)N5CCC[C@H]5CN)c4)C3)c2)cc1 (stereo partly shown) [Compound 115-010]
